We go through 16 compounds from paper PMC8071193, “Dual-Target Compounds against Type 2 Diabetes Mellitus: Proof of Concept for Sodium Dependent Glucose Transporter (SGLT) and Glycogen Phosphorylase (GP) Inhibitors” (Pharmaceuticals, 2021).

Assay [1] has as its target T1, SGLT1 (Homo sapiens, UniProt P13866).
T1 construct: host or cells: TSA201 (Human Embryonal Kidney) cells, lentiviral transduction, puromycin selection
T1 sequence (P13866 1-664): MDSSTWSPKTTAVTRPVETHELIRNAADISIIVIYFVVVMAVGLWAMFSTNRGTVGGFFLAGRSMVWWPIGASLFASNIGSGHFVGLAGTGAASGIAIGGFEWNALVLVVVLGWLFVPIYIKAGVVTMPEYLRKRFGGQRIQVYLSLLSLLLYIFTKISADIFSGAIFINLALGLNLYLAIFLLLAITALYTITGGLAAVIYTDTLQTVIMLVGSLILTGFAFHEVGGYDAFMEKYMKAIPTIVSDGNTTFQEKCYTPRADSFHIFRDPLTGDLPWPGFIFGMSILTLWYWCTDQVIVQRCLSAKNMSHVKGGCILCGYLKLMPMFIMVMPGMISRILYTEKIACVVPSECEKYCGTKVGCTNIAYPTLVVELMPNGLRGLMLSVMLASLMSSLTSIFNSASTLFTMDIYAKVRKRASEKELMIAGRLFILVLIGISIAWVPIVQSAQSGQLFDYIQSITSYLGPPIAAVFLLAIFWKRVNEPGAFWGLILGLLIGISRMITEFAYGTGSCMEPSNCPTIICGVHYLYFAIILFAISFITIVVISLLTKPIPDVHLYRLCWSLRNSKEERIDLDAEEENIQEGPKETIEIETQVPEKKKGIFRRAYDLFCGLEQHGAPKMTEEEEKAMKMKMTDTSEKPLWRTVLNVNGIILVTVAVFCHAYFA
As to the kind of experiment: SGLT1 inhibition, 2-NBDG glucose uptake in SGLT1-overexpressing TSA201 cells. Format: cell-based.
Procedure: (§1) Cells (100,000 cells, TSA201) were plated into each well of a 24-well plate and incubated overnight at 37 °C. […] Two wells were treated only with hexadimetrine bromide as a control. After 24 h of transfection, the medium was changed to fresh medium without antibiotics. Cells were collected and transferred into T-25 flasks after 3 days. On the fifth day, 10 µg/mL puromycin was added to select only the transfected cells. The nontransfected cells cannot survive this high concentration of antibiotic. To keep up the selection, the medium including 10 µg/mL puromycin was replaced every two days. The cells lived under puromycin pressure until the day of the experiments.
(§2) TSA201 cells (25,000) with and without overexpressed SGLT1 or 2 were put into poly-L-lysine (P5999, Sigma-Aldrich, St. Luis, MO, USA) treated wells of a 96-well plate. The next day, the cells were starved for 1 h with 90 µL glucose-free medium (D5036-10X1L Sigma-Aldrich, St. Luis, MO, USA) (with or without inhibitor). After starving, cells were treated with 100 µM 2-NBDG and incubated for 30 min (again with or without inhibitor). The incubation time of cells with possible inhibitors was 90 min altogether. After incubation, the medium was removed, the wells were washed with PBS twice, lysed with 100 µL lysis buffer (0.1 M KH2PO4 + 1% Triton-x, pH = 11), and stored at -20°C. […] Subsequently, the protein concentration was measured and NBDG uptake was normalized to protein amount.
(§3) After selecting optimal concentrations, each compound was tested at four different concentrations. […] To determine the specific effects of the compounds on SGLT1 or 2, the glucose uptake values in TSA201 cells without SGLT overexpression were subtracted from the values in TSA201 cell overexpressing SGLT. […] All calculations were prepared using the GraphPad Prism software (GraphPad Software, Inc., SanDiego, CA, USA). The data were plotted on a logarithmic scale as a function of inhibitor concentration. The IC50 values were calculated by non-linear regression analysis from sigmoidal dose-response curves. The results of kinetic experiments were calculated from at least three independent experiments. Each experiment contained four parallel samples that were averaged. The standard deviations were calculated based on the average values for the independent experiments.

In assay [2] the target is T2, SGLT2 (Homo sapiens, UniProt P31639).
T2 construct: host or cells: TSA201 (Human Embryonal Kidney) cells, lentiviral transduction, puromycin selection
T2 sequence (P31639 1-672): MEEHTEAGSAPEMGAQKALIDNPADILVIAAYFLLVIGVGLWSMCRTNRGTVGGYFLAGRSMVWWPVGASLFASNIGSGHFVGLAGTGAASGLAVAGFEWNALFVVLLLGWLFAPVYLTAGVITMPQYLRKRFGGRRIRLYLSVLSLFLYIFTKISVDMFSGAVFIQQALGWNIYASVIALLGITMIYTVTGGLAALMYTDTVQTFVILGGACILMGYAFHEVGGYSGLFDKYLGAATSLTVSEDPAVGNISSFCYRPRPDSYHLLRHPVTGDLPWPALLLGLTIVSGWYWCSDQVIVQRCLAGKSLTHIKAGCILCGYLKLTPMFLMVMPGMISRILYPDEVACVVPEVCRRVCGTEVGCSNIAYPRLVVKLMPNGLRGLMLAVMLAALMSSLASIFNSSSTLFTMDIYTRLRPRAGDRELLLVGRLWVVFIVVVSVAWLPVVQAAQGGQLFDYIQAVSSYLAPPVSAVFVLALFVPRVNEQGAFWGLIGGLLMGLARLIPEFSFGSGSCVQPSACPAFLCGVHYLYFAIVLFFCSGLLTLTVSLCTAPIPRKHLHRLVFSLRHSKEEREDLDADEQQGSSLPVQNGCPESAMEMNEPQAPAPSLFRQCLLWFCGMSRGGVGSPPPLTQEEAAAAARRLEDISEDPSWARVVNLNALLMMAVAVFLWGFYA
As to the kind of experiment: SGLT2 inhibition, 2-NBDG glucose uptake in SGLT2-overexpressing TSA201 cells. Format: cell-based. As to conditions: for SGLT2 inhibition (in words): TSA201 cells, up to 1000 µM.
Procedure: as §1, §2, §3

Assay [3] addresses T3, rabbit muscle glycogen phosphorylase b (rmGPb) (Oryctolagus cuniculus, UniProt P00489).
T3 construct: Glycogen phosphorylase b was isolated from rabbit skeletal muscle; from tissue; host or cells: rabbit skeletal muscle
T3 sequence (P00489 1-843): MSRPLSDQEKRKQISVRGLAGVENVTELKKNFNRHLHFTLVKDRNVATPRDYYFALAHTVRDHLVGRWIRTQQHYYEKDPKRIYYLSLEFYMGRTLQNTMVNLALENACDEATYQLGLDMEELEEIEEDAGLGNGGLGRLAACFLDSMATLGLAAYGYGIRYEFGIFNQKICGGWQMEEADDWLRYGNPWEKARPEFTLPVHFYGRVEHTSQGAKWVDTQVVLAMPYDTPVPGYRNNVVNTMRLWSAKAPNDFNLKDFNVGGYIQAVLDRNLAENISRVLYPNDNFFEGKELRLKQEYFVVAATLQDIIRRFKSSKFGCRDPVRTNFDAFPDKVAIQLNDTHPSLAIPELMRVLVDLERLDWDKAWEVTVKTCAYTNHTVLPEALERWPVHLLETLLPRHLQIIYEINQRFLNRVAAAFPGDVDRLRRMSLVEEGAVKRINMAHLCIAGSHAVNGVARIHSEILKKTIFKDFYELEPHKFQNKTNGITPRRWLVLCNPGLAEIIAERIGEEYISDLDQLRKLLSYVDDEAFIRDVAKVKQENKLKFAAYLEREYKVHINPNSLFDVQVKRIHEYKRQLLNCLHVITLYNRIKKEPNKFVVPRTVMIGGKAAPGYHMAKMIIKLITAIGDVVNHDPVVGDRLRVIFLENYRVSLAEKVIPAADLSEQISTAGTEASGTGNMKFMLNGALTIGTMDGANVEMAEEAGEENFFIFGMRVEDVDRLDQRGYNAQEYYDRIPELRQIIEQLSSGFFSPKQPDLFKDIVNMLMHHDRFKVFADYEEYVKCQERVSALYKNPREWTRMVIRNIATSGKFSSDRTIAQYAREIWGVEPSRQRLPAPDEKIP
Nature of the assay: Glycogen phosphorylase b enzyme kinetic inhibition assay (direction of glycogen synthesis). Format: biochemical. From the text:
The 2-NBDG (2-deoxy-2-[(7-nitro-2,1,3-benzoxadiazol-4-yl)amino]-D-glucose, cat. 11046) was purchased from Cayman Chemical Company (Ann Arbor, MI, USA). Lentivirus for SLC5A1 and SLC5A2 (NM_000343 for SGLT1, and NM-003041 for SGLT2) were obtained from Origene (Rockville, MD, USA). These expression vectors contain a puromycin resistance gene. […] CyQUANT^TM Cell Proliferation Assay Kit (2036547) was from Invitrogen (Carlsbad, CA, USA). Glycogen phosphorylase b was isolated from rabbit skeletal muscle according to the method of Fischer and Krebs.
Enzyme activity in the direction of glycogen synthesis was assayed. Kinetic data were collected using the muscle phosphorylase b (dephosphorylated, GPb) isoform. […] Enzymatic activities were presented in the form of a double-reciprocal plot (Lineweaver-Burk). The plots were analysed by a non-linear data analysis program. The inhibitor constants (Ki) were determined by secondary plots, replotting the slopes from the Lineweaver-Burk plot against the inhibitor concentrations. The means of standard errors for all calculated kinetic parameters averaged to less than 10% [78, 79].

The subject of assay [4] is sodium dependent glucose cotransporter (SGLT2). Details: method as in earlier work. As to conditions: Table 1; ref 19 (1), 35 (2), 36 (3), 37 (4), 38 (5), 34 (6); read-out: IC50 against SGLT2; cited from earlier work.
Where [5] appears, read: Table 2, NI: no inhibition at 625 µM.
Where [6] appears, read: Table 2, TSA-201 cells, NI: no inhibition at 1000 µM, compounds 1-2 used as controls for in-house assay.

Where two headings read alike, the source gives them in different places.

As to `OC[C@H]1O[C@@H](c2nc(Cc3ccccc3)n(-c3ccccc3)n2)[C@H](O)[C@@H](O)[C@@H]1O` [19c], the IC50 (in general, the midpoint of a concentration-inhibition curve) was 35.5 ± 9.56 µM in assay [1], 2.44 ± 0.85 µM in assay [2] and > 625 µM in assay [3] (setting [5]).

`COc1ccc(Cc2ccnc([C@@H]3O[C@H](CO)[C@@H](O)[C@H](O)[C@H]3O)n2)cc1` [16b, 2-(β-D-Glucopyranosyl)-4-(4-methoxybenzyl)pyrimidine]: the IC50 in assay [1] (setting [6]) is > 1000 µM; in assay [2], 11.6 ± 3.19 µM; in assay [3] (setting [5]) it was > 625 µM. Further, in assay [2], the “SGLT2 inhibition (in words)” value is listed as “inhibitory activity in the micromolar range”.

Take `OC[C@H]1O[C@@H](c2noc(Cc3ccccc3)n2)[C@H](O)[C@@H](O)[C@@H]1O` [10a, 5-Benzyl-3-(β-D-glucopyranosyl)-1,2,4-oxadiazole]: the IC50 was 20.7 ± 7.66 µM in assay [1], 3.68 ± 0.59 µM in assay [2] and > 625 µM in assay [3] (setting [5]). For the same compound, the “SGLT2 inhibition (in words)” value in assay [2] was “showed inhibitory effects”.

As for `O=C(CCc1ccc(O)cc1)c1c(O)cc(O)cc1O[C@@H]1O[C@H](CO)[C@@H](O)[C@H](O)[C@H]1O` [compound 1, phlorizin], in assay [4], the 50% inhibitory concentration (IC50) was 0.033 µM.

For `OC[C@H]1O[C@@H](c2nnc(Cc3ccc(Cl)cc3)o2)[C@H](O)[C@@H](O)[C@@H]1O` [13c, 5-(4-Chlorobenzyl)-2-(β-D-glucopyranosyl)-1,3,4-oxadiazole], the IC50 in assay [1] (setting [6]) was > 1000 µM; in assay [2] (setting [6]) it was > 1000 µM; in assay [3] (setting [5]), > 625 µM. Also, the “SGLT2 inhibition (in words)” value in assay [2] was “complete loss of the inhibition”.

As for `OC[C@H]1O[C@@H](c2noc(Cc3ccc(Cl)cc3)n2)[C@H](O)[C@@H](O)[C@@H]1O` [10c, 5-(4-Chlorobenzyl)-3-(β-D-glucopyranosyl)-1,2,4-oxadiazole], the IC50 in assay [1] (setting [6]) was > 1000 µM; in assay [2] (setting [6]), > 1000 µM; in assay [3] (setting [5]) it was > 625 µM. In addition, in assay [2], the “SGLT2 inhibition (in words)” value is “complete loss of the inhibition”.

With `CCOc1ccc(Cc2cc([C@@H]3O[C@H](CO)[C@@H](O)[C@H](O)[C@H]3O)ccc2Cl)cc1` [compound 2, dapagliflozin, reference compound], the IC50 in assay [3] was > 625 µM.

Turning to `OC[C@H]1O[C@@H](c2nccc(Cc3ccc(Cl)cc3)n2)[C@H](O)[C@@H](O)[C@@H]1O` [16c, 4-(4-Chlorobenzyl)-2-(β-D-glucopyranosyl)pyrimidine], the IC50 in assay [1] (setting [6]) is > 1000 µM; in assay [2] (setting [6]) it was > 1000 µM; in assay [3] (setting [5]), > 625 µM. In addition, the “SGLT2 inhibition (in words)” value in assay [2] was “inactive”.

As for `COc1ccc(Cc2nnc([C@@H]3O[C@H](CO)[C@@H](O)[C@H](O)[C@H]3O)o2)cc1` [13b, 2-(β-D-Glucopyranosyl)-5-(4-methoxybenzyl)-1,3,4-oxadiazole], the IC50 is > 1000 µM in assay [1] (setting [6]), > 1000 µM in assay [2] (setting [6]) and > 625 µM in assay [3] (setting [5]). Also, in assay [2], the “SGLT2 inhibition (in words)” value is reported as “complete loss of the inhibition”.

For `OC[C@H]1O[C@@H](c2nccc(Cc3ccccc3)n2)[C@H](O)[C@@H](O)[C@@H]1O` [16a, 4-Benzyl-2-(β-D-glucopyranosyl)pyrimidine], the IC50 was 18 ± 3.92 µM in assay [1], 17 ± 3.16 µM in assay [2] and > 625 µM in assay [3] (setting [5]). Besides, the “SGLT2 inhibition (in words)” value in assay [2] was “inhibitory activity in the micromolar range”.

As to `OC[C@H]1O[C@@H](c2nccc(Cc3ccc4ccccc4c3)n2)[C@H](O)[C@@H](O)[C@@H]1O` [16d, 2-(β-D-Glucopyranosyl)-4-(2-naphthylmethyl)pyrimidine], the figures for the IC50 in assay [1] (setting [6]), in assay [2] (setting [6]) and in assay [3] (setting [5]) were > 1000 µM, > 1000 µM and > 625 µM, respectively. In assay [2], the “SGLT2 inhibition (in words)” value is on record as “non-inhibitory”.

As to `OC[C@H]1O[C@@H](c2nnc(Cc3ccccc3)o2)[C@H](O)[C@@H](O)[C@@H]1O` [13a, 5-Benzyl-2-(β-D-glucopyranosyl)-1,3,4-oxadiazole], the figures for the IC50 in assay [1], in assay [2] and in assay [3] (setting [5]) were 23.7 ± 6.14 µM, 2.21 ± 0.58 µM and > 625 µM, respectively. In addition, the “SGLT2 inhibition (in words)” value in assay [2] is “showed inhibitory effects”.

Take `OC[C@H]1O[C@@H](c2nc(Cc3ccccc3)n[nH]2)[C@H](O)[C@@H](O)[C@@H]1O` [19a]: the results for the IC50 in assay [1], in assay [2] and in assay [3] (setting [5]) were 19.6 ± 7.26 µM, 71.7 ± 10.6 µM and > 625 µM, respectively. The “fold weakening in the SGLT2 inhibition” value in assay [2] (19a vs. 10a and 13a) was 20-30 fold.

Take `OCCn1nc([C@@H]2O[C@H](CO)[C@@H](O)[C@H](O)[C@H]2O)nc1Cc1ccccc1` [19b]: the results for the IC50 in assay [1] (setting [6]), in assay [2] (setting [6]) and in assay [3] (setting [5]) were > 1000 µM, > 1000 µM and > 625 µM, respectively. Besides, in assay [2], the “SGLT2 inhibition (in words)” value is reported as “complete loss of the inhibition”.

Take `OC[C@H]1O[C@@H](c2nc(Cc3ccccc3)c[nH]2)[C@H](O)[C@@H](O)[C@@H]1O` [compound 18, 4(5)-Benzyl-2-(β-D-glucopyranosyl)imidazole]: the IC50 in assay [1] was 11.7 ± 2.48 µM; in assay [2], 3.57 ± 0.42 µM. Moreover, the “times more effective (SGLT2 inhibition)” value in assay [2] (compared to 1,2,4-triazole 19a) is on record as ~ 20 times. For the same compound, at 625 µM the inhibition in assay [3] (Table 2, at 625 µM) was 12%.

Consider `COc1ccc(Cc2nc([C@@H]3O[C@H](CO)[C@@H](O)[C@H](O)[C@H]3O)no2)cc1` [10b, 3-(β-D-Glucopyranosyl)-5-(4-methoxybenzyl)-1,2,4-oxadiazole], for which the results for the IC50 in assay [1] (setting [6]), in assay [2] (setting [6]) and in assay [3] (setting [5]) were > 1000 µM, > 1000 µM and > 625 µM, respectively. The “SGLT2 inhibition (in words)” value in assay [2] is listed as “complete loss of the inhibition”.
